{"source": "patent US20130217578A1", "about": "“Growth inhibition of perennial forage grasses with Pyroxsulam” (Dow AgroSciences LLC, priority 2010, published 2013)", "type_in_all_cases": "in vivo", "key": {"[1]": {"tested_on": "meadow Bromegrass (BROCO, Bromus commutatus)", "assay": "Field trial: height of meadow Bromegrass after pyroxsulam application", "settings": "for Height (cm): mean of 3 replicates", "procedure": "(§1) Trials were conducted under field conditions in Canada. Trial sites were located in perennial forage grass areas. Forage grasses tested included: Bromegrass, Timothy Fescue and Wheatgrass species, including: meadow Bromegrass (BROCO, Bromus commutatus), smooth Brome grass (BROIN, Bromus inermus), Timothy (PHLPR, Phleum pretense), creeping red Fescue (FESRU, Festuca rubra), Tall Fescue (FESAR, Festuca arundinacea), and Western Wheatgrass (AGRSM, Agropyron smithii). The grasses were grown using normal cultural practices for fertilization, seeding, and maintenance to ensure good growth of the grasses. The trials were conducted using normal research methodology. Trial plots were between 2 to 5 meters (m) wide by 5 to 20 m long. All treatments were applied using a randomized complete block trial design with 3 or 4 replications per treatment. The trial sites had populations of homogeneous or heterogeneous perennial forage grass species present. Treatments consisted of pyroxsulam formulations (Simplicity® (trademark of Dow AgroSciences LLC for pyroxsulam+cloquintocet) or water-dispersible formulations of pyroxsulam) alone, or in tank mixes with Milestone® herbicide (trademark of Dow AgroSciences LLC for aminopyralid) or ClearView® herbicide (trademark of Dow AgroSciences LLC for aminopyralid+metsulfuron-methyl) with or without 2,4-D ester applied in water. Adjuvants were applied at 0.2% to 0.5% V/V. The application volumes were between 50 to 200 liters per hectare (L/ha). All application were made using precision gas hand sprayers or calibrated ATV sprayer using a 2 or 5 m boom using flat fan (80° or 110°) nozzles to broadcast the treatments post-emergent on the vegetation or soil.\n(§2) The treated plots and control plots were rated blind at various intervals after application. Ratings were based on Percent (%) Visual growth suppression (reduction) from untreated grass, where […] or growth inhibition compared to the untreated grass growth. Quantitative measurements were also taken at various intervals after application, and measured in cm or inches height of leaf blade top height from the ground."}, "[2]": {"tested_on": "All grass species combined (CRFescue, Brome Grass, Quackgrass)", "assay": "Field trial: biomass reduction of pyroxsulam-treated vs untreated grass", "settings": "30 DAA", "procedure": "Trials were conducted under field conditions in Canada. Trial sites were located in perennial forage grass areas. Forage grasses tested included: Bromegrass, Timothy Fescue and Wheatgrass species, including: meadow Bromegrass (BROCO, Bromus commutatus), smooth Brome grass (BROIN, Bromus inermus), Timothy (PHLPR, Phleum pretense), creeping red Fescue (FESRU, Festuca rubra), Tall Fescue (FESAR, Festuca arundinacea), and Western Wheatgrass (AGRSM, Agropyron smithii). The grasses were grown using normal cultural practices for fertilization, seeding, and maintenance to ensure good growth of the grasses. The trials were conducted using normal research methodology. Trial plots were between 2 to 5 meters (m) wide by 5 to 20 m long. All treatments were applied using a randomized complete block trial design with 3 or 4 replications per treatment. The trial sites had populations of homogeneous or heterogeneous perennial forage grass species present. […]\nThe treated plots and control plots were rated blind at various intervals after application. […] Quantitative measurements were also taken at various intervals after application, and measured in cm or inches height of leaf blade top height from the ground."}, "[3]": {"tested_on": "creeping red Fescue (FESRU, Festuca rubra)", "assay": "Field trial: percent growth inhibition of creeping red Fescue", "procedure": "as §1, §2"}, "[4]": {"settings": "15 g ai/ha, 0 days after application"}, "[5]": {"settings": "15 g ai/ha, 7 days after application"}, "[6]": {"settings": "15 g ai/ha, 14 days after application"}, "[7]": {"settings": "15 g ai/ha, 21 days after application"}, "[8]": {"settings": "15 g ai/ha, 30 days after application"}, "[9]": {"settings": "15 g ai/ha, 37 days after application"}, "[10]": {"settings": "15 g ai/ha, 42 days after application"}, "[11]": {"settings": "15 g ai/ha, 50 days after application"}, "[12]": {"settings": "15 g ai/ha, 56 days after application"}, "[13]": {"settings": "15 g ai/ha, 65 days after application"}, "[14]": {"settings": "15 g ai/ha, 72 days after application"}, "[15]": {"settings": "30 g ai/ha, 0 days after application"}, "[16]": {"settings": "30 g ai/ha, 7 days after application"}, "[17]": {"settings": "30 g ai/ha, 14 days after application"}, "[18]": {"settings": "30 g ai/ha, 21 days after application"}, "[19]": {"settings": "30 g ai/ha, 30 days after application"}, "[20]": {"settings": "30 g ai/ha, 37 days after application"}, "[21]": {"settings": "30 g ai/ha, 42 days after application"}, "[22]": {"settings": "30 g ai/ha, 50 days after application"}, "[23]": {"settings": "30 g ai/ha, 56 days after application"}, "[24]": {"settings": "30 g ai/ha, 65 days after application"}, "[25]": {"settings": "30 g ai/ha, 72 days after application"}}, "data": [{"smiles": "COc1cc(OC)n2nc(NS(=O)(=O)c3c(C(F)(F)F)ccnc3OC)nc2n1", "note": "[Pyroxsulam, N-(5,7-dimethoxy[1,2,4]-triazolo[1,5-α]pyrimidin-2-yl)-2-methoxy-4-(trifluoromethyl)-3-pyridinesulfonamide]", "values": [{"measurement": "Height (% of Untreated)", "setting": "[1]; [4]", "result": 100.0, "unit": "%"}, {"measurement": "Height (cm)", "setting": "[1]; [4]", "result": 20, "unit": "cm"}, {"measurement": "Height (% of Untreated)", "setting": "[1]; [5]", "result": 57.1, "unit": "%"}, {"measurement": "Height (cm)", "setting": "[1]; [5]", "result": 20, "unit": "cm"}, {"measurement": "Height (% of Untreated)", "setting": "[1]; [6]", "result": 50.0, "unit": "%"}, {"measurement": "Height (cm)", "setting": "[1]; [6]", "result": 25, "unit": "cm"}, {"measurement": "Height (% of Untreated)", "setting": "[1]; [7]", "result": 47.6, "unit": "%"}, {"measurement": "Height (cm)", "setting": "[1]; [7]", "result": 30, "unit": "cm"}, {"measurement": "Height (% of Untreated)", "setting": "[1]; [8]", "result": 45.0, "unit": "%"}, {"measurement": "Height (cm)", "setting": "[1]; [8]", "result": 27, "unit": "cm"}, {"measurement": "Height (% of Untreated)", "setting": "[1]; [9]", "result": 43.1, "unit": "%"}, {"measurement": "Height (cm)", "setting": "[1]; [9]", "result": 28, "unit": "cm"}, {"measurement": "Height (% of Untreated)", "setting": "[1]; [10]", "result": 45.2, "unit": "%"}, {"measurement": "Height (cm)", "setting": "[1]; [10]", "result": 33, "unit": "cm"}, {"measurement": "Height (% of Untreated)", "setting": "[1]; [11]", "result": 53.8, "unit": "%"}, {"measurement": "Height (cm)", "setting": "[1]; [11]", "result": 42, "unit": "cm"}, {"measurement": "Height (% of Untreated)", "setting": "[1]; [12]", "result": 52.4, "unit": "%"}, {"measurement": "Height (cm)", "setting": "[1]; [12]", "result": 43, "unit": "cm"}, {"measurement": "Height (% of Untreated)", "setting": "[1]; [13]", "result": 58.5, "unit": "%"}, {"measurement": "Height (cm)", "setting": "[1]; [13]", "result": 48, "unit": "cm"}, {"measurement": "Height (% of Untreated)", "setting": "[1]; [14]", "result": 76.8, "unit": "%"}, {"measurement": "Height (cm)", "setting": "[1]; [14]", "result": 63, "unit": "cm"}, {"measurement": "Height (% of Untreated)", "setting": "[1]; [15]", "result": 100.0, "unit": "%"}, {"measurement": "Height (cm)", "setting": "[1]; [15]", "result": 20, "unit": "cm"}, {"measurement": "Height (% of Untreated)", "setting": "[1]; [16]", "result": 57.1, "unit": "%"}, {"measurement": "Height (cm)", "setting": "[1]; [16]", "result": 20, "unit": "cm"}, {"measurement": "Height (% of Untreated)", "setting": "[1]; [17]", "result": 50.0, "unit": "%"}, {"measurement": "Height (cm)", "setting": "[1]; [17]", "result": 25, "unit": "cm"}, {"measurement": "Height (% of Untreated)", "setting": "[1]; [18]", "result": 44.4, "unit": "%"}, {"measurement": "Height (cm)", "setting": "[1]; [18]", "result": 28, "unit": "cm"}, {"measurement": "Height (% of Untreated)", "setting": "[1]; [19]", "result": 41.7, "unit": "%"}, {"measurement": "Height (cm)", "setting": "[1]; [19]", "result": 25, "unit": "cm"}, {"measurement": "Height (% of Untreated)", "setting": "[1]; [20]", "result": 38.5, "unit": "%"}, {"measurement": "Height (cm)", "setting": "[1]; [20]", "result": 25, "unit": "cm"}, {"measurement": "Height (% of Untreated)", "setting": "[1]; [21]", "result": 45.2, "unit": "%"}, {"measurement": "Height (cm)", "setting": "[1]; [21]", "result": 33, "unit": "cm"}, {"measurement": "Height (% of Untreated)", "setting": "[1]; [22]", "result": 51.3, "unit": "%"}, {"measurement": "Height (cm)", "setting": "[1]; [22]", "result": 40, "unit": "cm"}, {"measurement": "Height (% of Untreated)", "setting": "[1]; [23]", "result": 51.2, "unit": "%"}, {"measurement": "Height (cm)", "setting": "[1]; [23]", "result": 42, "unit": "cm"}, {"measurement": "Height (% of Untreated)", "setting": "[1]; [24]", "result": 52.4, "unit": "%"}, {"measurement": "Height (cm)", "setting": "[1]; [24]", "result": 43, "unit": "cm"}, {"measurement": "Height (% of Untreated)", "setting": "[1]; [25]", "result": 57.3, "unit": "%"}, {"measurement": "Height (cm)", "setting": "[1]; [25]", "result": 47, "unit": "cm"}, {"measurement": "Biomass reduction (%)", "setting": "[2]; 15 g/ha", "result": 40, "unit": "%"}, {"measurement": "Biomass reduction (%)", "setting": "[2]; 30 g/ha", "result": 38, "unit": "%"}, {"measurement": "% Growth Inhibition", "setting": "[3]; 15 g ai/ha, week 1", "result": 0, "unit": "%"}, {"measurement": "% Growth Inhibition", "setting": "[3]; 15 g ai/ha, week 2", "result": 7, "unit": "%"}, {"measurement": "% Growth Inhibition", "setting": "[3]; 15 g ai/ha, week 3", "result": 35, "unit": "%"}, {"measurement": "% Growth Inhibition", "setting": "[3]; 15 g ai/ha, week 4", "result": 30, "unit": "%"}, {"measurement": "% Growth Inhibition", "setting": "[3]; 15 g ai/ha, week 5", "result": 23, "unit": "%"}, {"measurement": "% Growth Inhibition", "setting": "[3]; 15 g ai/ha, week 6", "result": 21, "unit": "%"}, {"measurement": "% Growth Inhibition", "setting": "[3]; 15 g ai/ha, week 7", "result": 15, "unit": "%"}, {"measurement": "% Growth Inhibition", "setting": "[3]; 15 g ai/ha, week 8", "result": 4, "unit": "%"}, {"measurement": "% Growth Inhibition", "setting": "[3]; 15 g ai/ha, week 9", "result": 8, "unit": "%"}, {"measurement": "% Growth Inhibition", "setting": "[3]; 15 g ai/ha, week 10", "result": 12, "unit": "%"}, {"measurement": "% Growth Inhibition", "setting": "[3]; 30 g ai/ha, week 1", "result": 0, "unit": "%"}, {"measurement": "% Growth Inhibition", "setting": "[3]; 30 g ai/ha, week 2", "result": 14, "unit": "%"}, {"measurement": "% Growth Inhibition", "setting": "[3]; 30 g ai/ha, week 3", "result": 35, "unit": "%"}, {"measurement": "% Growth Inhibition", "setting": "[3]; 30 g ai/ha, week 4", "result": 32, "unit": "%"}, {"measurement": "% Growth Inhibition", "setting": "[3]; 30 g ai/ha, week 5", "result": 32, "unit": "%"}, {"measurement": "% Growth Inhibition", "setting": "[3]; 30 g ai/ha, week 6", "result": 21, "unit": "%"}, {"measurement": "% Growth Inhibition", "setting": "[3]; 30 g ai/ha, week 7", "result": 19, "unit": "%"}, {"measurement": "% Growth Inhibition", "setting": "[3]; 30 g ai/ha, week 8", "result": 12, "unit": "%"}, {"measurement": "% Growth Inhibition", "setting": "[3]; 30 g ai/ha, week 9", "result": 4, "unit": "%"}, {"measurement": "% Growth Inhibition", "setting": "[3]; 30 g ai/ha, week 10", "result": 12, "unit": "%"}]}]}
